The values below come from patent US20230075822A1, “USE OF CASTALAGIN OR ANALOGS THEREOF FOR ANTI-CANCER EFFICACY AND TO INCREASE THE RESPONSE TO IMMUNE CHECKPOINT INHIBITORS” (THE ROYAL INSTITUTION FOR THE ADVANCEMENT OF …, priority 2020, published 2023).

For assay [1], the system named is MCA-205 sarcoma. In words: MCA-205 tumor model in germ-free conditions. Conditions: castalagin 0.85 mg/kg per mouse. Type of assay: in vivo, C57BL/6 mice. As for the experimental part: FIG. 9A is a graph showing the effects of castalagin administration at the standard concentration (0.85 mg/kg per mouse) in germ-free conditions on tumor size in the murine MCA-205 tumor model.
Murine studies. All animal studies were approved by the Institutional Animal Care Committee (CIPA) and carried out in compliance with the Canadian Council on Animal Care guidelines. Murine experiments were conducted using seven-week-old female C57BL/6 mice, obtained from Charles River, Canada. Germ-free female C57BL/6 mice were purchased from the International Microbiome Centre Germ-Free Facility (University of Calgary, Canada) and maintained at the CR-CHUM Germ-Free Facility.
Subcutaneous model of MCA-205 sarcoma and E0771 breast cancer. Syngeneic C57BL/6 mice were implanted with 0.8×10^6 MCA-205 or 0.5×10^6 E0771 subcutaneously. When tumors reached 20 to 35 mm^2 in size, mice were treated four times (or two times for flow cytometry analysis, see section below) intraperitoneally (i.p.) every three day with anti-PD-1 monoclonal antibody (mAb) (250 μg/mouse; clone RMP1-14, BioXcell) or isotype control (clone 2A3, BioXcell). […] In the control group mice received daily oral gavage with water (100 μL) Tumor area was routinely monitored every three days by means of a caliper. […]

In assay [2] the test system is CD8^+ T cells. In words: Flow cytometry immune profiling of TILs, MCA-205 tumor model. Type of assay: in vivo, C57BL/6 mice. Particulars: SPF mice, castalagin experiment. As for the experimental part: FIGS. 7A-C are graphs showing the results of immune cell profiling by flow cytometry in the murine MCA-205 (FIGS. 7A-B) or E0771 (FIG. 7C) tumor model treated with anti-PD-1 and/or CC. The tumors and the spleens were harvested 9 days or 19 days after the first injection of anti-PD-1 mAb into mice bearing MCA-205 or E0771 tumors, respectively. Excised tumors were cut into small pieces and digested in RPMI medium containing Liberase 25 μg/mL (Roche) and DNase1 at 150 Ul/mL (Roche) for 30 minutes at 37° C. and then crushed and filtered twice using 100 and 70 μm cell strainers (Becton & Dickinson). Spleens were crushed in RPMI medium and subsequently filtered through a 100 μm cell strainer. Two million tumor cells or splenocytes were pre-incubated with purified anti-mouse CD16/CD32 (clone 93; eBioscience) for 30 minutes at 4° C., before membrane staining (CD45, CD3, CD4, CD8, PD1, PDL1, ICOS, CXCR3, CCR9, CD45RB, CD62L, CD44). For intracellular staining, the Foxp3 staining kit (eBioscience) was used. Dead cells were excluded using the Live/Dead Fixable aqua blue dead cell stain kit (Life Technologies). […] FIG. 7C is a graph showing the activation of intratumoral CD8^+ T cells (as assessed by MFI of ICOS^+CD8^+ T cells by flow cytometry) in TILs in the E0771 tumor model post-treatment with CC +/−αPD-1. […]
(In general: A flow cytometer gives signals particle by particle.)

With `O=C1OC[C@H]2OC(=O)c3cc(O)c(O)c(O)c3-c3c(O)c(O)c(O)c4c3C(=O)O[C@H]([C@H]3OC(=O)c5c-4c(O)c(O)c(O)c5[C@@H]3O)[C@@H]2OC(=O)c2cc(O)c(O)c(O)c2-c2c1cc(O)c(O)c2O` [castalagin, Castalagin], in assay [1], the tumor size entry is given as “abrogated castalagin antitumor effect”. For the same compound, the “TCM CD8^+ T cells (CD45RB^−CD62L^+) in TILs” value in assay [2] is given as “upregulation of Tom CD8^+ T cells”.
